Earlier results on three compounds are cited in patent publication US20220226239A1, “POLYMERIC MICELLE COMPLEXES, FORMULATIONS, AND USES THEREOF” (ARAVASC INC., priority 2019, published 2022).

Structures are written as SMILES. A value given as a limit tells only on which side of the number the result lay.

For series [1] the following is noted: for pKa (tri-protic phosphate), first value: first of three pKa values; for pKa (tri-protic phosphate), second value: second of three pKa values; for pKa (tri-protic phosphate), third value: third of three pKa values.
For series [2], the target named is T1, dihydropyrimidine dehydrogenase (DPD) (Homo sapiens, UniProt Q12882).
T1 sequence (Q12882 4-1025): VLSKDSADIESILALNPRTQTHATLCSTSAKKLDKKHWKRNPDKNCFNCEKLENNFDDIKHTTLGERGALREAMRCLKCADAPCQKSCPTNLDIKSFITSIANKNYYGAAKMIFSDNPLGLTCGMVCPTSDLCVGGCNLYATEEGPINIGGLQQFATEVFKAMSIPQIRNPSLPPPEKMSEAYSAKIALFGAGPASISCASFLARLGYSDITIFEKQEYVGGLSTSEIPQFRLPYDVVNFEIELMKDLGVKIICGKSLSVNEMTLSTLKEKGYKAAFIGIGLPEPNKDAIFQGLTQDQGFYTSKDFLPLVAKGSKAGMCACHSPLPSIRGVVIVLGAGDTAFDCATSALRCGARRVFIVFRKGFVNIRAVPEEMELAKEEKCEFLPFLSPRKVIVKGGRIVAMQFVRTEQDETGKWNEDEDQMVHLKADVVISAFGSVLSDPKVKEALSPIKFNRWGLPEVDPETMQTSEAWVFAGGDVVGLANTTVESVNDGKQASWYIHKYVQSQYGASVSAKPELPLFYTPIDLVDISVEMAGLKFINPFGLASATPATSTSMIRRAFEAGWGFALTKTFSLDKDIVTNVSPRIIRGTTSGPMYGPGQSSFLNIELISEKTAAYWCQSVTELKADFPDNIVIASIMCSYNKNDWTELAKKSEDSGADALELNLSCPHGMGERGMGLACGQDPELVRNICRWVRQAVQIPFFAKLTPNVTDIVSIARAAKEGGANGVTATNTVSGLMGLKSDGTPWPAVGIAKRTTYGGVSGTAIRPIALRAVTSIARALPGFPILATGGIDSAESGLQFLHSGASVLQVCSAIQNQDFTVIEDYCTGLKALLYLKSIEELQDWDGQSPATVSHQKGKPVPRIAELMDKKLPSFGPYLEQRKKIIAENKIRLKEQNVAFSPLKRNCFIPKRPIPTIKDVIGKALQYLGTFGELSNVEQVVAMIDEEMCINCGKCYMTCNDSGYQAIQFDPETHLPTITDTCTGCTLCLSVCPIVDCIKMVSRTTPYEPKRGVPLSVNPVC
Conditions: background statement.

Consider `Nc1nc2c(ncn2[C@@H]2O[C@@H]3COP(=O)(O)O[C@H]4[C@@H](O)[C@H](n5cnc6c(N)ncnc65)O[C@@H]4COP(=O)(O)O[C@@H]2[C@@H]3O)c(=O)[nH]1` [cGAMP, 2′, 3′ cyclic guanosine monophosphate-adenosine monophosphate], for which, in series [1], the “pKa (tri-protic phosphate), first value” is “phosphate) 2,15,”; the “Peturbed pKa (physiological pH)” value is “Greater than 6.5”; the “pKa (tri-protic phosphate), second value” was 7.20; the “pKa (tri-protic phosphate), third value” was 12.33.

In the case of `O=c1[nH]c(=O)n([C@H]2C[C@H](O)[C@@H](COP(=O)(O)O)O2)cc1F` [FdUMP, 5-Fluoro-2′-deoxyuridine-5′-O-monophosphate], in series [1], the “pKa (tri-protic phosphate), first value” is on record as “phosphate) 2.15,”; the “Peturbed pKa (physiological pH)” value is given as 6-6.5; the “pKa (tri-protic phosphate), second value” is given as 7.20; the “pKa (tri-protic phosphate), third value” is recorded as 12.33.

As for `O=c1[nH]cc(F)c(=O)[nH]1` [Formulation 5-FU, 5-fluorouracil], in series [2], the “degradation by dihydropyrimidine dehydrogenase (DPD)” value is recorded as > 80%.
